Measurements taken from ChEMBL document CHEMBL1124251, “Topical nonsteroidal antipsoriatic agents. 2. 2,3-(Alkylidenedioxy)naphthalene analogues of lonapalene” (1988).

What was measured:
Mus musculus [1] = assay: Percent inhibition of arachidonic acid induced mouse ear edema at 2 mg of total dose; assay type: functional
Mus musculus [2] = assay: Percent inhibition of arachidonic acid induced mouse ear edema at 2 mg of total dose; Insufficiently soluble in acetone; assay type: functional, organism-based

SMILES | Inhibition (Mus musculus [1]) | inhibition (Mus musculus [2])
COc1c(OC)c(OC(C)=O)c2cc(Cl)ccc2c1OC(C)=O [LONAPALENE] | 54% | –
O=C(Oc1c2c(c(OC(=O)c3ccccc3)c3cc(Cl)ccc13)OCO2)c1ccccc1 | 10% | –
O=C(Oc1c2c(c(OC(=O)c3ccccc3)c3cc(Cl)ccc13)OCCCO2)c1ccccc1 | – | Insufficiently soluble in acetone
CCC(=O)Oc1c2c(c(OC(=O)CC)c3cc(Cl)ccc13)OCCCO2 | 10% | –
CCC(=O)Oc1c2c(c(OC(=O)CC)c3cc(Cl)ccc13)OCCO2 | 30% | –
CC(C)(C)C(=O)Oc1c2c(c(OC(=O)C(C)(C)C)c3cc(Cl)ccc13)OCCO2 | 41% | –
CC(C)(C)C(=O)Oc1c2c(c(OC(=O)C(C)(C)C)c3cc(Cl)ccc13)OCCCO2 | 10% | –
O=C(Oc1c2c(c(OC(=O)c3ccccc3)c3cc(Cl)ccc13)OCCO2)c1ccccc1 | – | Insufficiently soluble in acetone
CCCC(=O)Oc1c2c(c(OC(=O)CCC)c3cc(Cl)ccc13)OCCCO2 | 35% | –
CC(=O)Oc1c2c(c(OC(C)=O)c3cc(Cl)ccc13)OCCCO2 | 40% | –
CC(=O)Oc1c2c(c(OC(C)=O)c3cc(Cl)ccc13)OCO2 | 61% | –
CC(=O)Oc1c2c(c(OC(C)=O)c3cc(Cl)ccc13)OCCO2 | 24% | –
CC(C)C(=O)Oc1c2c(c(OC(=O)C(C)C)c3cc(Cl)ccc13)OCCCO2 | 27% | –
CC(C)(C)C(=O)Oc1c2c(c(OC(=O)C(C)(C)C)c3cc(Cl)ccc13)OCO2 | 8% | –
CC(C)C(=O)Oc1c2c(c(OC(=O)C(C)C)c3cc(Cl)ccc13)OCCO2 | 75% | –
CCC(=O)Oc1c2c(c(OC(=O)CC)c3cc(Cl)ccc13)OCO2 | 35% | –
CCCC(=O)Oc1c2c(c(OC(=O)CCC)c3cc(Cl)ccc13)OCCO2 | 26% | –
